The values that follow come from ChEMBL document CHEMBL1137249, “Cytostatic and antiviral 6-arylpurine ribonucleosides. Part 7: synthesis and evaluation of 6-substituted purine l-ribonucleosides” (Bioorg Med Chem Lett, 2006).

Data set [1] can be described thus: Cytotoxicity against Huh7 cells expressing HCV con1 replicon. Type of data set: cell-based, Huh-7. To be noted: human. A general note: A replicon is a self-replicating genome or part of one, used to study replication in cells.
In data set [2] the test system is Hepatitis C virus. Briefly: Antiviral activity against HCV con1 replicon by HCV subgenomic replicon assay. Type of data set: functional, organism-based, Hepacivirus hominis. The settings on record: genotype 1b con1.
Data set [3] relates to Hepatitis C virus. Briefly: Inhibition of recombinant HCV con1 NS5Bdelta21 RNA polymerase. The arrangement: species or system Hepatitis C virus subtype 1b.
Data set [4] in a line: Cytotoxicity against MT4 cells. To be noted: human. It is filed as cell-based.
Data set [5] concerns Hepatitis C virus. The data set can be described thus: Incorporation by HCV con1 NS5Bdelta55 RNA polymerase upto 1mM. The settings on record: Hepatitis C virus subtype 1b.

Structures are written as SMILES. The source made the active and inactive calls. The calls are words filed in the database; no cut-off is given here. Where only a bound is given, the exact number is not on record here.

With `OC[C@@H]1O[C@H](n2cnc3c(-c4ccco4)ncnc32)[C@@H](O)[C@H]1O`, in data set [1], the CC50 (commonly the concentration that lowers cell viability or growth by half) was more than 100 µM. For the same compound, the EC50 (commonly the concentration that produces a half-maximal response) with Hepatitis C virus [2] is more than 100 µM.

As to `OC[C@@H]1O[C@H](n2cnc3c(-c4ccccc4)ncnc32)[C@@H](O)[C@H]1O`, in data set [1], the CC50 was more than 50 µM. The same compound gave a 50% effective concentration (EC50) in the data set with Hepatitis C virus [2] of more than 100 µM.

In data set [1], `Cc1ncnc2c1ncn2[C@H]1O[C@@H](CO)[C@H](O)[C@@H]1O` yielded a CC50 of more than 500 µM. This compound also came in with an EC50 with Hepatitis C virus [2] of more than 500 µM.

Compound `OC[C@@H]1O[C@H](n2cnc3c(-c4ccsc4)ncnc32)[C@@H](O)[C@H]1O` had a CC50 in data set [1] of more than 50 µM. In the data set with Hepatitis C virus [2], this compound gave an EC50 of more than 50 µM.

For the compound `COc1ccc(-c2ncnc3c2ncn3[C@H]2OC(CO)[C@H](O)[C@@H]2O)cc1` (single isomer, unassigned), the CC50 in data set [1] is more than 100 µM. Moreover, the EC50 in the data set with Hepatitis C virus [2] is more than 50 µM.

With `OC[C@@H]1O[C@H](n2cnc3c(Cc4ccccc4)ncnc32)[C@@H](O)[C@H]1O`, the CC50 in data set [1] and in data set [4] was more than 500 µM each time. For the same compound, the half-maximal inhibitory concentration (IC50) (commonly the point on the concentration scale where inhibition reaches its midpoint) in the data set with Hepatitis C virus [3] was more than 100 µM. This compound yielded an EC50 with Hepatitis C virus [2] of 41 µM. Further, in the data set on Hepatitis C virus [5], the result was inactive.

With `OC[C@H]1O[C@H](n2cnc3c(-c4cccs4)ncnc32)[C@@H](O)[C@H]1O`, the CC50 in data set [1] and in data set [4] was more than 100 µM each time. Besides, the EC50 in the data set on Hepatitis C virus [2] is 56 µM.

With `O=P(O)(O)OC[C@@H]1O[C@H](n2cnc3c(Cc4ccccc4)ncnc32)[C@@H](OP(=O)(O)O)[C@H]1OP(=O)(O)O`, the outcome with Hepatitis C virus [5] was inactive.

`CCc1ncnc2c1ncn2[C@H]1O[C@@H](CO)[C@H](O)[C@@H]1O`: the half-maximal cytotoxic concentration (CC50) in data set [1] was more than 500 µM. The same compound returned an EC50 with Hepatitis C virus [2] of more than 500 µM.

Consider `Nc1ncnc2c1ncn2[C@H]1O[C@@H](COP(=O)(O)O)[C@H](OP(=O)(O)O)[C@@H]1OP(=O)(O)O`, for which the outcome in the data set on Hepatitis C virus [5] was inactive.

As to `OCc1ncnc2c1ncn2[C@H]1O[C@@H](CO)[C@H](O)[C@@H]1O`, the cytotoxic concentration (CC50) in data set [1] is more than 500 µM. The EC50 in the data set on Hepatitis C virus [2] is more than 500 µM.
